{"source": "patent US10376486B2", "about": "“Compositions and methods for reactivating latent viral infections” (priority 2014, dated 2019)", "key": {"[1]": {"conditions": "systemic (intravenous), mini pig and rat model; cited from earlier work"}, "[2]": {"test_system": "J-Lat A1 cells, U1 cells, primary CD4+ T cells", "experiment": "Cell proliferation / S-phase progression by BrdU ELISA", "type": "cell-based", "conditions": "U1 cells or primary CD4+ T cells, 12 nM PEP005, 24 hours", "method": "FIG. 7: PEP005 causes minimal cytotoxicity and T cell proliferation. To evaluate the impact of PEP005 on the cell viability, U1 cells (A), J-Lat A1 cells (B) and CD4+ T cells (C) were treated with 12 nM of PEP005 for 24 hours, the cell viability was examined with the MTT assay and the S-phase cell cycle progression was evaluated after BrdU incorporation using BrdU ELISA. 25-50 μM Etoposide or 100-150 μM Doxorubicin (Doxo) served as positive controls for MTT and BrdU assays respectively. Statistical analysis was performed in comparison with controls. **, p<0.01.\nCells were placed in 96-well plates and incubated for 24 or 72 h hrs with compounds. Cell viability was measured using MTT assay (Roche Laboratories), and cell proliferation/S-phase progression was determined by using BrdU ELISA kit (Cell signaling, #1863)."}, "[3]": {"test_system": "latent HIV in J-Lat A1 cells", "experiment": "HIV latency reactivation in J-Lat A1 cells (GFP expression by flow cytometry)", "type": "cell-based", "method": "FIG. 1: PEP005 induces reactivation of HIV latency in vitro. J-Lat A1 cells were exposed to different concentrations of PEP005 and virus reactivation was measured by GFP expression using flow cytometry. Cell viability was determined by Live/Dead dye staining. (A) Chemical Structure of PEP005. […] (D) PEP005 potently reactivates latent HIV in cell lines compared with other LRAs. J-Lat A1 cells were treated with 10 nM PEP005, 500 nM SAHA, 2 μM JQ1, 2 μM GSK343, 10 ng/ml TNF, 2 μM Prostratin, or 5 ng/ml PMA for 24 hours and the percentage of GFP expression was evaluated using flow cytometry. *, p<0.05; **, p<0.01.\nFIG. 2: PEP005 synergizes with other latency reversing agents in reactivating latent HIV. (A) J-Lat A1 cells were treated with 5 ng/ml PMA, 6 nM PEP005, 500 nM SAHA, 2 μM JQ1, 2 μM GSK343, or 10 μM Prostratin alone or in combination with 6 nM PEP005 for 24 hours and the percentage of GFP expressing cells was determined using flow cytometry. **, p<0.01; *, p<0.05 compared with control treatment; **, p<0.01; *, p<0.05 compared with PEP005 treatment alone. (B) The U1 cells were treated with 5 ng/ml PMA, 6 nM PEP005, 500 nM SAHA, 2 μM JQ1, or 2 μM GSK343, alone or in combination with 6 nM PEP005 for 24 hours and the HIV transcription was evaluated using RT-qPCR. Numbers indicate fold-increase over the control. **, p<0.01; *, p<0.05 compared with control treatment; **, p<0.01; *, p<0.05 compared with PEP005 treatment alone. […] The Bliss independence model was utilized for calculation of synergy for LRA combinations. Dotted horizontal line signifies pure additive effect (Δfaxy=0). Synergy is defined as Δfaxy>0 while Δfaxy<0 indicates antagonism. Statistical significance was determined using a one tailed ratio t-test comparing predicted and observed drug combination effects. *p<0.05; **p<0.01.\nJ-Lat A1 cells (harboring a single copy of latent HIV LTR and one copy of green fluorescent protein gene under the HIV LTR control) or U1 cells (harboring two latent HIV genomes with defective Tat gene) were cultured in RPMI1640 medium with 10% fetal bovine serum (FBS) and 1% Pen/strep in a 37° C. incubator containing 5% CO2 [24,31]. Both of the cell lines were obtained from NIH AIDS Reagent Program. For reactivation of HIV LTR, cells were treated with PMA (Sigma), JQ1 (Biovision), Prostatin (Sigma), SAHA (Santa Cruz), TNF-α (BD), GSK343 (Sigma), or PEP005 (Tocris Bioscience) for 24 h. HIV reactivation was quantified by GFP expression using flow cytometry and the data were analyzed using FlowJo Software for J-Lat A1 cells, or by quantitative RT-PCR (RT-qPCR) for J-Lat A1 and U1 cells. Cell viability was evaluated using Live/Dead dye (Life Technologies) by flow cytometry. So far, there is not a single in vitro cell culture model available that captures all the features of HIV latency. However, PKC agonists seem to reactivate latent HIV in all the cell culture models of viral latency. Similar to other J-Lat cell lines, the J-Lat A1 clone has been widely used by researchers for HIV latency studies. The T-cell-derived J-Lat A1 cells harbor one copy of a construct containing a Tat and a green fluorescent protein (GFP) gene framed by the 5′ and 3′ HIV LTR [32]. The J-Lat A1 cells also contain the TAR loop located within the R region of HIV LTR (nt +1 to +60), which provides an opportunity for Tat-TAR interactions for the modulation of transcription and transcriptional elongation. […]"}, "[4]": {"conditions": "PBMCs of healthy HIV-negative donors, 12 nM PEP005, 24 or 72 hours"}, "[5]": {"conditions": "purified primary CD4+ T cells, 12 nM PEP005, 24 hrs"}}, "data": [{"smiles": "C/C=C(/C)C(=O)O[C@H]1C(C)=C[C@]23C(=O)[C@@H](C=C(CO)[C@@H](O)[C@]12O)[C@H]1[C@@H](C[C@H]3C)C1(C)C", "note": "[PEP005, (1aR,2S,5R,5aS,6S,8aS,9R,10aR)-5,5a-Dihydroxy-4-(hydroxymethyl)-1,1,7,9-tetramethyl-11-oxo-1a,2,5,5a,6,9,10,10a-octahydro-1H-2,8a-methanocyclopenta[a]cyclpropa[e][10]annulen-6-yl (2Z)-2-methylbut-2-enoate]", "values": [{"measurement": "maximum nonlethal dose", "setting": "[1]", "value": "> 0.073", "unit": "mg/kg"}, {"measurement": "proportion of cells in S-phase (BrdU)", "setting": "[2]", "value": "did not induce any significant increase"}, {"measurement": "concentration at which effect on HIV expression was evident", "setting": "[3]", "value": 2, "unit": "nM"}, {"measurement": "HIV reactivation compared to other compounds known to reactivate HIV", "setting": "[3]; 10 nM PEP005 vs 500 nM SAHA, 2 μM JQ1, 2 μM GSK343, 2 μM Prostratin, 5 ng/ml PMA, 24 h", "value": "more potent than SAHA"}, {"measurement": "increase in the reactivation of HIV latency compared to untreated controls", "setting": "[3]; 20 nM PEP005", "value": 7, "unit": "fold"}, {"measurement": "induction of HIV expression, agent alone", "setting": "[3]; GFP, 24 h, PEP005 2-40 nM, GSK343 2 μM", "value": "dose-dependent manner"}, {"measurement": "expression of CD38 (24 hr) and HLA-DR by flow cytometry", "setting": "primary CD4+ T cells; [4]", "value": "no significant change"}, {"measurement": "expression of CD69 by flow cytometry", "setting": "primary CD4+ T cells; [4]", "value": "increase in expression of CD69"}, {"measurement": "expression of CD38, CD25, or HLA-DR by RT-qPCR", "setting": "primary CD4+ T cells; [5]", "value": "did not cause any significant change"}, {"measurement": "expression of CD69 by RT-qPCR", "setting": "primary CD4+ T cells; [5]", "value": "increased expression of CD69"}]}]}
